Assay results reported in US20040235900A1, “Antimicrobial oxazolifinones with improved pharmacokinetic profile and safety advantages” (priority 2002, published 2004).
In brackets after ≈: the same amount, converted by molar mass.

Assays:
[1] = Pharmacokinetic study, single I.V. bolus dose in beagle dog; assay type: in vivo; details: iv, single I.V. bolus dose 15 mg/kg (table title), Compound No. 4 and linezolid in 5% Tween, other compounds in cyclodextrin, serum; for concentration at 12 hr: read-out: C-12 hr; for AUC(0-t): read-out: AUC (0-24 hr)
Description: Blood samples were collected at time points of 0, 0.08 (not for oral), 0.25, 0.50, 1.0, 1.5, 2.0, 3.0, 4.0, 5.0, 6.0, 8.0, 10.0, 12.0 and 24.0 hours. To facilitate i.v. dosing and collection of blood samples, the dogs were implanted with cannula in cephalic vein. Serum obtained from blood samples was used for HPLC-based analysis.
Serum samples were extracted by solid phase extraction technique using Water's OASIS HLB cartridges. An HPLC-Diode array detection system was used for analysis. Prepared samples were chromatographed on a YMC-AM reversed phase column (150×4.6 mm ID; 5 μm) using an isocratic mobile phase acetate buffer (50 mmol ammonium acetate pH 6.6) acetonitrile, 66:34% v/v (for a representative compound of the invention, 68:32% v/v for compound Nos. 30, 3, 7 and 11 of U.S. Pat. No. 5,668,286, and 75:25% v/v for linezolid) at a flow rate of 1 ml/min, measured at λmax 254 nm. Independently prepared analytical standards and quality control samples were analyzed with each set of unknown samples.
The pharmacokinetics of a representative compound of the invention following single I.V. bolus dose administration of the compound in beagle dog is shown in Table 3.

[2] = tested on: Streptococcus pneumoniae ATCC 49619; test: In-vitro MIC test (agar dilution, 5% sheep blood), S. pneumoniae; assay type: cell-based; details: ATCC49619, Mueller Hinton agar containing 5% sheep blood, read-out: Minimum Inhibitory Concentrations (MIC) S. pneumoniae
Text: (§1) The test methods used for verifying the antimicrobial action of compound within the scope of this invention are essentially the same as those described in PCT WO 95/25106, U.S. Pat. No. 5,668,286 and EP 0 750, 618 B1, with the difference that the strains of the organisms used for the MIC determinations in these patents and applications are Staphylococcus aureus ATCC 25923, Staphylococcus epidermidis ATCC 12828, Streptococcus pyogenes ATCC 19615.
(§2) The in-vitro MIC methods of test compounds were determined essentially as described in PCT WO 95/25106, U.S. Pat. No. 5,668,286 and EP 0 750 618 B1.
(§3) Overnight grown cultures of S. aureus organisms in Tryptic Soya broth were diluted in Mueller Hinton Broth to give optical density matching with MacFarland tube 0.5 standard. Cultures were further diluted 1:10 in Mueller Hinton broth. Using Denley's mutipoint inoculator, 10^4 cells were deposited on Mueller Hinton agar (Difco) containing range of 2 fold dilutions of test compounds. These plates were incubated for 24 hrs at 35° C. and MIC results recorded. MIC is defined as minimum drug concentration that inhibits test organisms. For determining MIC of test compounds against Streptococcus pneumoniae, Mueller Hinton agar containing 5% sheep blood was employed.

[3] = tested on: Methicillin Resistant Staphylococcus aureus MRSA-32; test: In-vitro MIC test (agar dilution), MRSA-32; assay type: cell-based; details: Staphylococcus aureus, MRSA; Mueller Hinton agar, 24 hrs at 35° C.; read-out: Minimum Inhibitory Concentrations (MIC) MRSA-32
Text: as §1, §2, §3

[4] = tested on: Enterococcus faecalis ATCC 29212; test: In-vitro MIC test (agar dilution), E. faecalis; assay type: cell-based; details: ATCC29212, Mueller Hinton agar, 24 hrs at 35° C., read-out: Minimum Inhibitory Concentrations (MIC) E. faecalis
Text: as §1, §2, §3

reticulocytes = test: Myelosuppressive potential: reticulocyte counts, 14-day oral dosing; assay type: in vivo, Wistar rats
Description: A group of 6 Wistar rats (3 male and 3 female) was exposed to a representative compound of the invention viz. compound No. 4 of the invention, by oral route at a single dose of 50 mg/kg per day for 14 consecutive days. Compound No.30 of U.S. Pat. No. 5,668,286 was also subjected to the same protocol. Linezolid (LNZ) was used as a comparator drug and was administered to rats (by oral route at a dose of 2×25 mg/kg per day for 14 consecutive days. Vehicle treated controls were maintained using identical experimental conditions. The treated as well as control rats were sacrificed 24 hr after the last dose.
A second parameter measured was the change in reticulocyte count, for which the following method was used.
Blood was collected on day 15 (24 hours after the last dose administration) from all the treated as well as control rats by retro-orbital sinus puncture using clean glass rat capillary tubes. […]
3 slides/animal were prepared according to NCCLS staining procedure for reticulocyte staining and counting. […] The percentage presence of reticulocyte was determined in 1000 erythrocytes and was expressed in terms of percentage of reticulocytes over erythrocytes. […]
Values in each of the first two columns above represent ratio of relative weight (calculated organ to body weight ratio) of spleen or thymus in drug treated animals v/s control animals. […]

SMILES	Cmax [1]	concentration at 12 hr [1]	half-life [1]	AUC(0-t) [1]	MIC [2]	MIC [3]	MIC [4]	change in ratio of percentage reticulocytes of treated animal versus control animal (in words) (reticulocytes; rat, in vivo, po)	Ratio of % reticulocytes Retics (treated animal versus control animal) (reticulocytes; Wistar rats, oral, 14 consecutive days, 50 mg/kg per day (LNZ 2×25 mg/kg per day), blood on day 15, ratio less than 0.75 indicates myelosuppressive potential)
CC(=O)NC[C@H]1CN(c2ccc(N3CCC(CC#N)CC3)c(F)c2)C(=O)O1 [Compound 4, (S)-N-{3-[4-(4-cyanomethyl-piperidin-1-yl)-3-fluoro-phenyl]-2-oxo-oxazolidin-5-ylmethyl}-acetamide]	8280 ng/mL	2640 ng/mL	12.9 h	80900 ng·h/mL	1 µg/mL (≈ 2.67 µM)	2 µg/mL (≈ 5.34 µM)	2 µg/mL (≈ 5.34 µM)	no significant change	
CC(=O)NC[C@H]1CN(c2ccc(N3CCOCC3)c(F)c2)C(=O)O1 [Linezolid]	7160 ng/mL	0 ng/mL	2.41 h	23300 ng·h/mL	0.5 µg/mL (≈ 1.48 µM)	2 µg/mL (≈ 5.93 µM)	2 µg/mL (≈ 5.93 µM)		0.43
